From patent publication EP0541617B1, “1,4-DISUBSTITUTED PIPERAZINES” (NOVO NORDISK A/S, priority 1990, dated 1992) come the findings set out here.

As usually defined, the IC50 is the concentration at which inhibition is half-maximal.

Assay [1] relates to Male NMRI mice. The assay is described as follows: Test 2: increase of motility of mice after intravenous administration (photocell crossings). Conditions: ED50, i.v., lowest ED50 value determined at a 20 min interval during the 360 min test period. The format is in vivo. The protocol:
The compounds were also tested for their ability to increase the motility of mice following intravenous administration using the method outlined below.
Male NMRI mice are used (20 ± 2 g). The animals are housed 20-30 per cage under constant temperature (20 ± 1°C) and relative humidity (40-60%). The animals are brought into the experimental room in the afternoon, the day before they undergo testing.
The experimentally-naive, uninjected mice are acclimatized by being placed in a plexiglass box (WLH: 20 x 20 x 38 cm), four per box, for a 120 min period, and then injected with the test compound whereafter they are replaced in the plexiglass box.
The plexiglass box is equipped with a frame of photocells (spaced equidistantly) which are situated so as to detect locomotor behaviour of the animals (1 cm above the floor). The photocell chamber is housed in an sound-insulated, dimly-lit, ventilated chest. As a measure of exploratory behaviour, the number of photocell crossings in a 360 min period is detected using a minicomputer. Testing is made between 7:00 and 17.00 h.
Drugs are injected i.v. simultaneously with start of testing; N = 4/dose; 4-5 doses of test drug is given in a volume of 10 ml/kg. […]

The target in assay [2] is T1, DA-uptake complex (Rattus norvegicus, UniProt P23977).
T1 construct: in a striatal membrane preparation; from tissue; host or cells: striatum (membrane preparation)
T1 sequence (P23977 whole entry, one chain of several): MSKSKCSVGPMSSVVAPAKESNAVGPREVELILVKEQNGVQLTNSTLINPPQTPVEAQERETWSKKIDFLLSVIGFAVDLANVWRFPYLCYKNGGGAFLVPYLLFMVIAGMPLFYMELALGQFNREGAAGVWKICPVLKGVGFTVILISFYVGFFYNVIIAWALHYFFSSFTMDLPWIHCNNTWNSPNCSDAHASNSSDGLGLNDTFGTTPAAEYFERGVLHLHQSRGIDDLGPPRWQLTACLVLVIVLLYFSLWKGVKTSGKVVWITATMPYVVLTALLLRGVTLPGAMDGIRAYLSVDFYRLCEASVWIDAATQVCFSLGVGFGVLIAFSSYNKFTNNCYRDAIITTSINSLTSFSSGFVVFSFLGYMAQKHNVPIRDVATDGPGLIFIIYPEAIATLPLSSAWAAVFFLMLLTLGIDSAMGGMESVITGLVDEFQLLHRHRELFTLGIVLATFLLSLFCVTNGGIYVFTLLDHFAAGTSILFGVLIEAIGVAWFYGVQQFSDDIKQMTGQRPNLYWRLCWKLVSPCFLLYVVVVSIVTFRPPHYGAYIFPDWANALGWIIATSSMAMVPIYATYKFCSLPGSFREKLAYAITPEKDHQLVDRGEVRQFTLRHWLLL
The assay is described as follows: Test 1: inhibition of 3H-GBR 12935 binding in a striatal membrane preparation.

Regarding `N#CCCCCN1CCN(CCOC(c2ccc(F)cc2)c2ccc(F)cc2)CC1` [Example 4A, 1-[2-(bis-(4-fluorophenyl)-methoxy)-ethyl]-4-(4-cyanobutyl)-piperazine], the “Test 2” value in assay [1] was found to be 2.4 mg/kg. Also, the IC50 in assay [2] is 0.018 µM.
For `Fc1ccc(C(OCCN2CCN(CCCc3ccccc3)CC2)c2ccc(F)cc2)cc1` [GBR 12909, 1-(2-(bis(4-fluorophenyl)-methoxy)-ethyl)-4-(3-phenyl-propyl) piperazine, reference compound], in assay [1], the “Test 2” value was 2.3 mg/kg.
